Assays:
LINE-1 [1] = assay: Single cell clonal isolation and sequence verification of live edited HEK 293T clones; settings: for Mean target deamination % / Number of cells with targeted deamination / Percent of cells with targeted deamination: HEK 293T, Day 14; for non-specific nucleotide conversions in gRNA and PAM: most highly edited clone versus parental 293T control
Method: (§2) Single cells were FACS-sorted into flat bottom 96-well plates containing 100 μL of DMEM with 10% FBS and 1% Penicillin/Streptomycin per well. Sorted plates were incubated for ˜14 days until well-characterized colonies were visible, with periodic media changes performed as necessary. To extract gDNA, the cells were first detached using 30 μL TRYPLE™ Express (Thermofisher Cat. #12604021) and neutralized with 30 μL growth media. Then, 4 μL of the resulting cell suspension was transferred to 10 μL of QE. Genomic DNA was extracted according to manufacturer's protocol, as described previously.
(§3) Library preparation was conducted as previously described^5. Briefly, genomic DNA was amplified using locus-specific primers attached to part of the Illumina adapter sequence. A second round of PCR included the index sequence and the full Illumina adapter. All PCRs were carried out using KAPA HiFi HotStart ReadyMix (KAPA Biosystems KK2602) according to the manufacturer's thermocycler conditions. Libraries were purified using gel extraction (Qiagen Cat. #28706), quantified using Nanodrop and pooled together for deep sequencing on the MiSeq using 150 paired end (PE) reads.
(§4) All paired end reads were aligned to the reference genome using bowtie2, and the resulting alignment files were converted to bam, sorted, indexed, and variant called using samtools^7. All SNV data within a 30 bp window from the 5′ start of the gRNA proceeding through the PAM and extending an additional seven bp's (for a 20 bp gRNA) are reported to analyze the editing window and purity of editing.

LINE-1 [2] = assay: FACS single cell direct NGS of targeted deamination, HEK 293T; format: cell-based, human; settings: for Mean target deamination % / Percent of cells with targeted deamination / Number of cells with targeted deamination: HEK 293T; for Mean target deamination % / Percent of cells with targeted deamination: Day 2; for Number of cells with targeted deamination: Day 2, 96 analyzed cells
Method: To quantify early genetic editing in cells transfected with Cas9/BE and gRNA expression plasmids, single cells were sorted and prepared as follows. Two days post-transfection, single cells were FACS-sorted into 96-well PCR plates containing 10 μL of QUICKEXTRACT™ DNA Extraction Solution (Epicentre Cat. #QE09050) per well and genomic DNA (gDNA) was extracted using the manufacturer's protocol. Briefly, the sorted plates were sealed, vortexed and heated at 65° C. for 6 minutes then 98° C. for 2 minutes. The NGS library was prepared as described later below.
(§1) Library preparation was conducted as previously described^5.

LINE-1 [3] = tested on: LINE-1
Method: as §2, §3, §4

LINE-1 [4] = assay: Line-1 subfamily analysis and matches to HL1gR4 (HL1gR4 PCR products); design: species or system human; settings: for Reads: Total Reads 35520
LINE-1 [5] = assay: NGS base editing deamination analysis, bulk transfected HEK 293T; format: cell-based, human; settings: for gRNAs with above control levels of base editing in genomic DNA: HEK 293T, LINE-1 gRNAs
Method: as §1

[6] = 293T, HL1gR4, two days post-transfection
[7] = HL1gR6, 3 days after transfection

Method for single-locus targets: HEK 293T cells were obtained from ATCC with verification of cell line identification and mycoplasma negative results. They were expanded using 10% fetal bovine serum (FBS) in high-glucose DMEM with glutamax passaging at a typical rate of 1:100 and maintained at 37° C. with 5% CO2. Transfection was conducted using Lipofectamine 2000 (ThermoFisher Catalogue #11668019) using the protocol recommended by the manufacturer with slight modifications outlined below. 24 hours before transfection ˜1.0×10^5 cells were seeded per well in a 12-well plate along with 1 mL of media. A total of 2 μg of DNA and 2 μL of Lipofectamine 2000 were used per well. For Cas9 plasmids, the DNA content per well was 1 μg of pCas9_GFP mixed with 1 μg of gRNA-expressing plasmid. For BE plasmids, 1.5 μg of BE was mixed with 0.5 μg of gRNA plasmid. In the dBE vs nBE comparison used to generate FIGS. 4A-4C, Pifithrin-α (10 ng/μ1) from Sigma-Aldrich P4359 (source #063M4741V, Batch #0000003019) was added to the media 30 minutes before transfection and maintained in the first day media change.
Raw Illumina sequencing data was demultiplexed using bcl2fastq. All paired end reads were aligned to the reference genome using bowtie2^49 and the resulting alignment files were parsed for their cigar string to determine the position and size of all indels within each read using a custom perl script (https://github.com/CRISPRengineer/mutation_indel). All indels that were sequenced in both the forward and reverse reads were summed across all reads and reported for each sample along with the total number of reads. Indels within a 30 bp window from the 5′ start of the gRNA proceeding through the PAM and extending an additional seven bp's (for a 20 bp gRNA) were counted and summed for each sample.
as §4

dCBE4-gam: nick-less dCas9 cytidine base editor with mu-gam (H840A), SEQ ID NO: 108
Mean target deamination % (LINE-1 [1]): 3.05% | Number of cells with targeted deamination (LINE-1 [1]): 20 | Percent of cells with targeted deamination (LINE-1 [1]): 69% | increase in mean editing frequency among surviving live clones compared to nicking counterpart (LINE-1 [1]; day 14): 2.38 fold | non-specific nucleotide conversions in gRNA and PAM (LINE-1 [1]): some non-specific nucleotide conversions | total number of chromosomal aberrations of top edited clones (HEK 293T): not significantly different than control groups | indel activity (single-locus targets): reduced to background levels | mean target nucleotide deamination frequency compared to nBE equivalents (LINE-1 [2]; 293T, HL1gR4, 2 days after transfection): significant reductions | Mean target deamination % (LINE-1 [2]): 4.43% | Percent of cells with targeted deamination (LINE-1 [2]): 41.7% | Number of cells with targeted deamination (LINE-1 [2]): 40 | Number of analyzed cells (LINE-1 [3]): 29

HL1gR4: SpCas9 gRNA targeting LINE-1 ORF2, SEQ ID NO: 54 (guide ATTCTACCAGAGGTACAAGG; chemistry not given here)
Percentage of reads (LINE-1 [4]; # of Mismatches 0): 64.1% | Reads (LINE-1 [4]; # of Mismatches 0): 22780 | Percentage of reads (LINE-1 [4]; # of Mismatches 1): 18.4% | Reads (LINE-1 [4]; # of Mismatches 1): 6546 | Percentage of reads (LINE-1 [4]; # of Mismatches 2): 3.2% | Reads (LINE-1 [4]; # of Mismatches 2): 1131 | Percentage of reads (LINE-1 [4]; # of Mismatches 3): 0.4% | Reads (LINE-1 [4]; # of Mismatches 3): 148 | Percentage of reads (LINE-1 [4]; # of Mismatches 4): 0.2% | Reads (LINE-1 [4]; # of Mismatches 4): 63 | Percentage of reads (LINE-1 [4]; # of Mismatches 5): 0.0% | Reads (LINE-1 [4]; # of Mismatches 5): 2 | Percentage of reads (LINE-1 [4]; # of Mismatches 6): 0.1% | Reads (LINE-1 [4]; # of Mismatches 6): 26 | Percentage of reads (LINE-1 [4]; # of Mismatches 7): 0.0% | Reads (LINE-1 [4]; # of Mismatches 7): 1 | Percentage of reads (LINE-1 [4]; # of Mismatches 8): 0.0% | Reads (LINE-1 [4]; # of Mismatches 8): 1 | Percentage of reads (LINE-1 [4]; # of Mismatches 9): 0.0% | Reads (LINE-1 [4]; # of Mismatches 9): 1 | Percentage of reads (LINE-1 [4]; # of Mismatches >9): 13% | Reads (LINE-1 [4]; # of Mismatches >9): 4600

nCBE3: rAPOBEC1-XTEN-nCas9-UGI-NLS, SEQ ID NO: 10, Addgene #73021 [reference compound]
fate of edited cell lines before day 30 (LINE-1 [1]; 293T, HL1gR4): died | mean deamination frequency compared with nCBE4-gam (LINE-1 [2]; [6]): significantly higher

dCBE4: nick-less dCas9 cytidine base editor (H840A), SEQ ID NO: 107
indel activity (single-locus targets): reduced to background levels | improvement in editing efficiency over CBE2 (single-locus targets; 293T cells, day five): 2.38 fold | reduction in efficiency compared to nicking counterparts (single-locus targets; 293T cells, day five): 34.7%

nCBE4-gam: Cas9 nickase-cytidine deaminase-gam, SEQ ID NO: 12, Addgene #100806 [reference compound]
deamination frequencies of surviving cell lines (LINE-1 [1]; 293T, HL1gR4, day 30): ≤ 1.37 % of LINE-1 | estimated sites edited in surviving cell lines (LINE-1 [1]; 293T, HL1gR4, day 30): ~356 sites | Mean target deamination % (LINE-1 [1]): 1.28% | Number of cells with targeted deamination (LINE-1 [1]): 4 | Percent of cells with targeted deamination (LINE-1 [1]): 33% | non-specific nucleotide conversions in gRNA and PAM (LINE-1 [1]): some non-specific nucleotide conversions | total number of chromosomal aberrations of top edited clones (HEK 293T): not significantly different than control groups | gRNAs with above control levels of base editing in genomic DNA (LINE-1 [5]): 4 out of 5 | deamination in the most highly edited single cell (LINE-1 [2]; [6]): up to 54.9% | estimated loci edited in the most highly edited single cell (LINE-1 [2]; [6]): 14,300 loci | Mean target deamination % (LINE-1 [2]): 6.08% | Percent of cells with targeted deamination (LINE-1 [2]): 65.6% | Number of cells with targeted deamination (LINE-1 [2]): 63 | C→T deamination in cells after a second round of editing of cloneK (LINE-1 [2]; day 2): up to 36.26% | Number of analyzed cells (LINE-1 [3]): 12

nABE: ecTadA(wt)-linker(32aa)-ecTadA*(7.10)-linker(32aa)-nCas9-NLS, SEQ ID NO: 15, Addgene #102919
Mean target deamination % (LINE-1 [1]): 0.88% | Number of cells with targeted deamination (LINE-1 [1]): 4 | Percent of cells with targeted deamination (LINE-1 [1]): 25% | non-specific nucleotide conversions in gRNA and PAM (LINE-1 [1]): not | total number of chromosomal aberrations of top edited clones (HEK 293T): not significantly different than control groups | gRNAs with above control levels of base editing in genomic DNA (LINE-1 [5]): 4 out of 5 | editing efficiency (LINE-1 [5]; [7]): 4.94% | loci edited (LINE-1 [5]; [7]): ~1290 loci | Mean target deamination % (LINE-1 [2]): 5.32% | Percent of cells with targeted deamination (LINE-1 [2]): 60.4% | Number of cells with targeted deamination (LINE-1 [2]): 58 | decrease in editing efficiency at the early timepoint (LINE-1 [2]; nABE 5.32% versus dABE 1.45%): 3.67 fold | Number of analyzed cells (LINE-1 [3]): 16

— patent publication US20220177877A1, “HIGHLY MULTIPLEXED BASE EDITING” (President and Fellows of Harvard College, priority 2019, published 2022)
